Measurements taken from patent US20130065897A1, “COMPOUNDS, PREPARATION AND USES THEREOF” (PETER MACCALLUM CANCER INSTITUTE, priority 2009, published 2013).
pIC50: −log10 of the molar value. Read-outs that look alike come from different tables or passages of the source.

Assays:
Type in all cases: cell-based
recombinant perforin = recombinant perforin (UniProt P10820)
Protocol: Inhibition of Perforin-Mediated Lysis of Jurkat Cells
The ability of the compounds to inhibit the lysis of nucleated (Jurkat T lymphoma) cells in the presence of 0.1% BSA, as measured by release of ^51Cr was measured. Jurkat target cells were labelled by incubation in medium with 100 μCi ^51Cr for one hour. The cells were then washed three times to remove unincorporated isotope and re-suspended at 1×10^5 cells per mL in RPMI buffer supplemented with 0.1% BSA. […] The supernatant was collected and assessed for its radioactive content on a gamma counter (Wallac Wizard 1470 automatic gamma counter). Each data point was performed in triplicate and an IC50 was calculated from the range of concentrations described to above.

[1] = test system: KHYG-1 NK cell-mediated lysis of K562 cells; experiment: Inhibition of KHYG-1 NK cell-mediated lysis of K562 cells (51Cr release); conditions: K562 target cells, Effector:Target 2:1, 4 hours 37° C.
Protocol: Inhibition of KHYG-1 NK Cell-Mediated lysis of K562 Cells
KHYG-1 cells were washed and resuspended in RPMI+0.1% BSA at 4×10^5 cells/ml and 50 μl of KHYG-1 cells were dispensed to each well of a 96-well V-bottom, plate. Test compounds were added to KHYG-1 cells at various concentrations up to 20 μM and incubated at RT for 20 minutes. 1×10^6 K562 target cells were labelled with 75 μCi ^51Cr in 200 μl RPMI for 90 mins at 37° C., cells were washed as described above and resuspended in 5 ml RPMI+0.1% BSA. 50 μl of ^51Cr labelled K562 leukemia target cells were added to each well of the KHYG-1 plate (Effector:Target 2:1) and incubated at 37° C. for 4 hours. ^51Cr release was assayed using a Skatron Harvesting Press and radioactivity estimated on a Wallac Wizard 1470 Automatic Gamma counter (Turku, Finland). The percentage of specific cytotoxicity was calculated by the formula: […]
and expressed as the mean of triplicate assays +/−standard error of the mean.

KHYG-1 NK cells = experiment: Toxicity to KHYG-1 NK cells (trypan blue viability); conditions: viable cells as percentage of total (% viability), 18 to 24 hours
Protocol: Toxicity to KHYG-1 NK Cells
KHYG-1 cells were washed and resuspended in RPMI+0.1% BSA at 4×10^5 cells/ml and 50 μl of KHYG-1 cells were dispensed to each well of a 96-well V-bottom plate. Test compounds were added to KHYG-1 cells at a concentration of 20 μM and incubated at RT for 20 minutes. 100 μL of RPMI 0.1% BSA was added and the cells were incubated for 4 hours at 37° C. then washed ×3 in RPMI+0.1% BSA. Cells were then resuspended in 200 μl of complete medium and incubated for 18 to 24 hours at 37° C. Trypan blue was added to each well and viable (clear) cells counted as a percentage of total (clear+blue) cell number (% viability).

[2] = read-out: Jurkat IC50; recombinant perforin pre-incubated 30 min with compound; 51Cr-labelled Jurkat cells, 0.1% BSA, 37° C. 4 hours
[3] = recombinant perforin pre-incubated 30 min with compound; 51Cr-labelled Jurkat cells, 0.1% BSA, 37° C. 4 hours; read-out: Jurkat IC50

recombinant perforin, sequence (P10820 whole entry): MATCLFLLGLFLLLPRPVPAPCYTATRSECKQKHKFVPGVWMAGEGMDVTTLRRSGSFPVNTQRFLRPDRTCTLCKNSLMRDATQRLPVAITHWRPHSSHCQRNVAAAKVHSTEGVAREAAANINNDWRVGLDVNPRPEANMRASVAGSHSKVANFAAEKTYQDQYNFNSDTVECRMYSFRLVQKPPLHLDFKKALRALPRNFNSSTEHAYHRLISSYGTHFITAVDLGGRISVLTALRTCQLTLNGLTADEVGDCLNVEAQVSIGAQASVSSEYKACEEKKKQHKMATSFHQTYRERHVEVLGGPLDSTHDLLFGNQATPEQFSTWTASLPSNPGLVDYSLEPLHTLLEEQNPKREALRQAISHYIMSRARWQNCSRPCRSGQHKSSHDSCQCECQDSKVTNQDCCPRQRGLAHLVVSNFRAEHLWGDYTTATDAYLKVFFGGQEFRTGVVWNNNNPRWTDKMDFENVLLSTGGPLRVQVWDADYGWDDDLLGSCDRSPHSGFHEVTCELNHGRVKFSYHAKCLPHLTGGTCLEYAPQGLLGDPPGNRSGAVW

Structure (SMILES) | pIC50 (recombinant perforin; [2]) | inhibition at 20 µM [1] [%] | percent viable KHYG-1 cells (trypan blue) at 20 μM (KHYG-1 NK cells) [%] | pIC50 (recombinant perforin; [3]) | Inhibition of KHYG-1 at 20 μM [1] [%]
O=C1NC(=S)N/C1=C/c1ccc(-c2ccc3c(c2)COC3=O)s1 [Cmpd 2, (E,Z)-5-((5-(1-Oxo-1,3-dihydroisobenzofuran-5-yl)thiophen-2-yl)methylene)-2-thioxoimidazolidin-4-one] | 6.12 | 52 | 83 | – | –
O=C1NC(=S)N/C1=C/c1ccc(-c2ccc3c(c2)COC3=O)cn1 [Cmpd 7] | – | – | – | 5.70 | –
O=C1NC(=S)N/C1=C/c1ccc2cc(-c3ccc4c(c3)COC4=O)ccc2n1 [Cmpd 14, (E,Z)-5-((6-(1-Oxo-1,3-dihydroisobenzofuran-5-yl)quinolin-2-yl)methylene)-2-thioxoimidazolidin-4-one] | – | – | 81 | 6.33 | 56
NC(=O)c1ccc(-c2ccc(/C=C3/NC(=S)NC3=O)s2)cc1 [Cmpd 16, (E,Z)-4-(5-((5-oxo-2-thioxoimidazolidin-4-ylidene)methyl)thiophen-2-yl)benzamide] | 5.81 | 80 | 52 | – | –
NC(=O)c1cccc(-c2ccc(/C=C3/NC(=S)NC3=O)s2)c1 [Cmpd 17, (E,Z)-3-(5-((5-Oxo-2-thioxoimidazolidin-4-ylidene)methyl)thiophen-2-yl)benzamide] | 6.10 | 35 | 100 | – | –
CC(=O)OCc1ccc(-c2ccc(/C=C3/NC(=S)NC3=O)s2)cc1 [Cmpd 18, (E,Z)-4-(5-((5-Oxo-2-thioxoimidazolidin-4-ylidene)methyl)thiophen-2-yl)benzyl acetate] | 5.52 | 98 | 100 | – | –
COC(=O)c1ccc(-c2ccc(/C=C3/NC(=S)NC3=O)s2)cc1 [Cmpd 19, (E,Z)-Methyl 4-(5-((5-oxo-2-thioxoimidazolidin-4-ylidene)methyl)thiophen-2-yl)benzoate] | 5.79 | 30 | 95 | – | –
CC(=O)c1ccc(-c2ccc(/C=C3/NC(=S)NC3=O)s2)cc1 [Cmpd 20, (E,Z)-5-((5-(4-Acetylphenyl)thiophen-2-yl)methylene)-2-thioxoimidazolidin-4-one] | 5.78 | 90 | 100 | – | –
COC(=O)c1ccc(-c2ccc(/C=C3/NC(=S)NC3=O)s2)cc1C [Cmpd 21, (E,Z)-Methyl 2-methyl-4-(5-((5-oxo-2-thioxoimidazolidin-4-ylidene)methyl)thiophen-2-yl)benzoate] | 5.52 | 92 | – | – | –
O=C1NC(=S)N/C1=C/c1ccc(-c2cccc(Cl)c2)s1 [Cmpd 23, (E,Z)-5-((5-(3-Chlorophenyl)thiophen-2-yl)methylene)-2-thioxoimidazolidin-4-one] | 5.14 | 92 | 55 | – | –
O=C1NC(=S)N/C1=C/c1ccc(-c2ccc(Cl)cc2)s1 [Cmpd 24, (E,Z)-5-((5-(4-Chlorophenyl)thiophen-2-yl)methylene)-2-thioxoimidazolidin-4-one] | 5.28 | 59 | 89 | – | –
O=C1NC(=S)N/C1=C/c1ccc(-c2ccncc2)s1 [Cmpd 25, (E,Z)-5-((5-(Pyridin-4-yl)thiophen-2-yl)methylene)-2-thioxoimidazolidin-4-one] | 5.00 | – | – | – | –
CSc1ccc(-c2ccc(/C=C3/NC(=S)NC3=O)s2)cc1 [Cmpd 27] | 5.94 | 43 | 83 | – | –
CS(=O)(=O)c1ccc(-c2ccc(/C=C3/NC(=S)NC3=O)s2)cc1 [Cmpd 28, (E,Z)-5-((5-(4-(Methylsulfonyl)phenyl)thiophen-2-yl)methylene)-2-thioxoimidazolidin-4-one] | 4.86 | – | – | – | –
O=C1NC(=S)N/C1=C/c1ccc(-c2ccc(F)cc2)s1 [Cmpd 29, (E,Z)-5-((5-(4-Fluorophenyl)thiophen-2-yl)methylene)-2-thioxoimidazolidin-4-one] | 5.17 | – | – | – | –
O=C1NC(=S)N/C1=C/c1ccc(-c2ccc(F)c(F)c2)s1 [Cmpd 30, (E,Z)-5-((5-(3,4-Difluorophenyl)thiophen-2-yl)methylene)-2-thioxoimidazolidin-4-one] | 5.34 | – | – | – | –
O=C1NC(=S)N/C1=C/c1ccc(-c2cccc(F)c2)s1 [Cmpd 31, (E,Z)-5-((5-(3-Fluorophenyl)thiophen-2-yl)methylene)-2-thioxoimidazolidin-4-one] | 4.97 | – | – | – | –
O=C1NC(=S)N/C1=C/c1ccc(-c2ccc(Br)cc2)s1 [Cmpd 32, (E,Z)-5-((5-(4-Bromophenyl)thiophen-2-yl)methylene)-2-thioxoimidazolidin-4-one] | 5.77 | 66 | 83 | – | –
CS(=O)(=O)Nc1ccc(-c2ccc(/C=C3/NC(=S)NC3=O)s2)cc1 [Cmpd 33, (E,Z)-N-(4-(5-((5-Oxo-2-thioxoimidazolidin-4-ylidene)methyl)thiophen-2-yl)phenyl)methanesulfonamide] | 5.11 | 32 | – | – | –
N#Cc1cccc(-c2ccc(/C=C3/NC(=S)NC3=O)s2)c1 [Cmpd 34, (E,Z)-3-(5-((5-Oxo-2-thioxoimidazolidin-4-ylidene)methyl)thiophen-2-yl)benzonitrile] | 5.01 | 97 | 99 | – | –
O=C1NC(=S)N/C1=C/c1ccc(-c2ccc(O)cc2)s1 [Cmpd 35, (E,Z)-5-((5-(4-Hydroxyphenyl)thiophen-2-yl)methylene)-2-thioxoimidazolidin-4-one] | 5.11 | 90 | 93 | – | –
CNC(=O)c1ccc(-c2ccc(/C=C3/NC(=S)NC3=O)s2)cc1 [Cmpd 38, (E,Z)-N-Methyl-4-(5-((5-oxo-2-thioxoimidazolidin-4-ylidene)methyl)thiophen-2-yl)benzamide] | 5.34 | 49 | 97 | – | –
O=C1NC(=S)N/C1=C/c1ccc(-c2ccc(C(=O)NCCO)cc2)s1 [Cmpd 42, (E,Z)-N-(2-Hydroxyethyl)-4-(5-((5-oxo-2-thioxoimidazolidin-4-ylidene)methyl)thiophen-2-yl)benzamide] | 5.44 | 42 | – | – | –
O=C1NC(=S)N/C1=C/c1ccc(-c2ccc(C(=O)NCCCO)cc2)s1 [Cmpd 44, (E,Z)-N-(3-Hydroxypropyl)-4-(5-((5-oxo-2-thioxoimidazolidin-4-ylidene)methyl)thiophen-2-yl)benzamide] | 5.36 | 52 | – | – | –
O=C1NC(=S)NC1=Cc1ccc(-c2ccc3c(c2)CNC3=O)cc1 [Cmpd 48, (E,Z)-5-(4-((5-Oxo-2-thioxoimidazolidin-4-ylidene)methyl)phenyl)isoindolin-1-one] | 5.26 | 16 | – | – | –
CN1Cc2cc(-c3ccc(/C=C4/NC(=S)NC4=O)s3)ccc2C1=O [Cmpd 61, (E,Z)-2-Methyl-5-(5-((5-oxo-2-thioxoimidazolidin-4-ylidene)methyl)thiophen-2-yl)isoindolin-1-one] | – | 83 | 76 | – | –
O=C1NC(=S)N/C1=C/c1ccc(-c2ccc3c(c2)CN(CC(O)CO)C3=O)s1 (stereo not drawn) [Cmpd 78, (E,Z)-2-(2,3-Dihydroxypropyl)-5-(5-((5-oxo-2-thioxoimidazolidin-4-ylidene)methyl)thiophen-2-yl)isoindolin-1-one] | 5.90 | 19 | – | – | –
CN1CCc2ccc(-c3ccc(/C=C4\NC(=S)NC4=O)s3)cc2C1=O [Cmpd 83, (E,Z)-2-Methyl-7-(5-((5-oxo-2-thioxoimidazolidin-4-ylidene)methyl)thiophen-2-yl)-3,4-dihydroisoquinolin-1(2H)-one] | 5.32 | 91 | – | – | –
CN1CCc2cc(-c3ccc(/C=C4\NC(=S)NC4=O)s3)ccc2C1=O [Cmpd 84, (E,Z)-2-Methyl-6-(5-((5-oxo-2-thioxoimidazolidin-4-ylidene)methyl)thiophen-2-yl)-3,4-dihydroisoquinolin-1(2H)-one] | 5.63 | 72 | – | – | –
